Source: ChEMBL document CHEMBL1201862, “PubChem BioAssay data set” (2004)
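Briefly, cells in 96-well plates were exposed to five compound concentrations for 48 h, and endpoints were estimated by linear interpolation. GI50 marks 50% less growth.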 Active and inactive are the calls of the source. No stated cut-off is given here; in the data, active = GI50 up to about 1.1 µM and inactive = higher.

Legend:
Assay in all cases: DTP human tumour cell line panel, 48 h
[1] = test system: NCI-H460
[2] = test system: SNB-75
[3] = test system: MOLT-4
[4] = test system: A498
[5] = test system: CAKI-1
[6] = test system: SK-MEL-28
[7] = test system: HCC 2998
[8] = test system: SNB-19
[9] = test system: SN12C
[10] = test system: LOX IMVI
[11] = test system: HT-29
[12] = test system: K562
[13] = test system: HCT-116
[14] = test system: HCT-15
[15] = test system: EKVX
[16] = test system: UACC-62
[17] = test system: HOP-92
[18] = test system: SK-MEL-2
[19] = test system: SF-539
[20] = test system: IGROV-1
[21] = test system: KM-20L2
[22] = test system: 786-0
[23] = test system: SF-268
[24] = test system: RPMI-8226
[25] = test system: A549
[26] = test system: OVCAR-8
[27] = test system: OVCAR-3
[28] = test system: SF-295
[29] = test system: OVCAR-4
[30] = test system: OVCAR-5
[31] = test system: CCRF-CEM
[32] = test system: KM12
[33] = test system: DMS-114
[34] = test system: COLO 205
[35] = test system: HL-60
[36] = test system: M19-MEL
[37] = test system: HOP-18
[38] = test system: U-251
[39] = test system: LXFL 529
[40] = test system: XF498
[41] = test system: SR
[42] = test system: HOP-62
[43] = test system: NCI-H226
[44] = test system: SW-620
[45] = test system: UO-31
[46] = test system: TK-10
[47] = test system: RXF 393
[48] = test system: M14
[49] = test system: ACHN
[50] = test system: Malme-3M
[51] = test system: UACC-257
[52] = test system: SK-OV-3
[53] = test system: SK-MEL-5
[54] = test system: DLD-1
[55] = test system: DMS-273
[56] = test system: SNB-78
[57] = test system: NCI-H23

For `O=C1c2ccncc2C(=O)c2c(O)ccc(O)c21`, the GI50 [1] was 11.4 µM (inactive), the GI50 [2] was 23.6 µM (inactive) and the GI50 [3] was 5.89 µM (inactive). The GI50 [4] was 19 µM (inactive), the GI50 [5] was > 10 µM (inactive) and the GI50 [6] was 11.9 µM (inactive). The GI50 [7] was 4.92 µM (inactive), the GI50 [8] was 12.4 µM (inactive) and the GI50 [9] was 4.73 µM (inactive). For the same compound, the GI50 [10] was 4.25 µM (inactive), the GI50 [11] was 3.07 µM (inactive) and the GI50 [12] was 10.1 µM (inactive). For the same compound, the GI50 [13] was 2.91 µM (inactive), the GI50 [14] was 4.52 µM and the GI50 [15] was 18 µM (inactive). For the same compound, the GI50 [16] was 3.12 µM (inactive), the GI50 [17] was 17.7 µM (inactive) and the GI50 [18] was 8.05 µM (inactive). For the same compound, the GI50 [19] was 3.89 µM (inactive), the GI50 [20] was 12.5 µM (inactive) and the GI50 [21] was 2.88 µM (inactive). The GI50 [22] was 6.38 µM (inactive), the GI50 [23] was 11.1 µM (inactive) and the GI50 [24] was 5.16 µM (inactive). For the same compound, the GI50 [25] was 5.48 µM (inactive), the GI50 [26] was 9.64 µM (inactive) and the GI50 [27] was 1.95 µM (inactive). For the same compound, the GI50 [28] was 12.6 µM (inactive), the GI50 [29] was 11.1 µM (inactive) and the GI50 [30] was 16 µM (inactive). The GI50 [31] was 4.33 µM (inactive), the GI50 [32] was 6.07 µM (inactive) and the GI50 [33] was 3.01 µM (inactive). The GI50 [34] was 3.72 µM (inactive), the GI50 [35] was 2.22 µM (inactive) and the GI50 [36] was 1.32 µM (inactive). The GI50 [37] was 12.9 µM (inactive), the GI50 [38] was 16 µM (inactive) and the GI50 [39] was 10.3 µM (inactive). The GI50 [40] was 4.16 µM (inactive), the GI50 [41] was 11 µM (inactive) and the GI50 [42] was 32.2 µM (inactive). For the same compound, the GI50 [43] was 15.7 µM (inactive), the GI50 [44] was 2.89 µM (inactive) and the GI50 [45] was 16.2 µM (inactive). The GI50 [46] was 27.5 µM (inactive), the GI50 [47] was 4.35 µM (inactive) and the GI50 [48] was 4.65 µM (inactive). The GI50 [49] was 4.27 µM (inactive) and the GI50 [50] was 1.69 µM (inactive).
With `COc1ccccc1C1c2cc3c(cc2OC(O)(CO)C1C(=O)O)OCO3.COc1ccccc1C1c2cc3c(cc2OC2(O)COC(=O)C12)OCO3` (centres undefined) the GI50 [51] was > 100 µM (inactive), the GI50 [1] was > 100 µM (inactive) and the GI50 [2] was 26.9 µM (inactive). For the same compound, the GI50 [3] was 70 µM (inactive), the GI50 [4] was > 100 µM (inactive) and the GI50 [52] was > 100 µM (inactive). For the same compound, the GI50 [6] was > 100 µM (inactive), the GI50 [7] was > 100 µM (inactive) and the GI50 [9] was > 100 µM (inactive). The GI50 [10] was > 100 µM (inactive), the GI50 [11] was > 100 µM (inactive) and the GI50 [12] was > 100 µM (inactive). The GI50 [13] was > 100 µM (inactive), the GI50 [14] was greater than 100 µM and the GI50 [15] was > 100 µM (inactive). For the same compound, the GI50 [16] was > 100 µM (inactive), the GI50 [17] was > 100 µM (inactive) and the GI50 [53] was > 100 µM (inactive). For the same compound, the GI50 [18] was > 100 µM (inactive), the GI50 [54] was > 100 µM (inactive) and the GI50 [19] was > 100 µM (inactive). For the same compound, the GI50 [20] was > 100 µM (inactive), the GI50 [21] was > 100 µM (inactive) and the GI50 [22] was > 100 µM (inactive). The GI50 [23] was > 100 µM (inactive), the GI50 [24] was > 100 µM (inactive) and the GI50 [25] was > 100 µM (inactive). For the same compound, the GI50 [26] was > 100 µM (inactive), the GI50 [27] was > 100 µM (inactive) and the GI50 [28] was > 100 µM (inactive). For the same compound, the GI50 [29] was > 100 µM (inactive), the GI50 [30] was > 100 µM (inactive) and the GI50 [31] was 92.7 µM (inactive). For the same compound, the GI50 [55] was > 100 µM (inactive), the GI50 [32] was > 100 µM (inactive) and the GI50 [33] was > 100 µM (inactive). The GI50 [34] was > 100 µM (inactive), the GI50 [35] was 95.1 µM (inactive) and the GI50 [36] was > 100 µM (inactive). The GI50 [37] was > 100 µM (inactive), the GI50 [56] was > 100 µM (inactive) and the GI50 [38] was > 100 µM (inactive). The GI50 [39] was > 100 µM (inactive), the GI50 [57] was > 100 µM (inactive) and the GI50 [41] was > 100 µM (inactive). The GI50 [42] was > 100 µM (inactive), the GI50 [43] was > 100 µM (inactive) and the GI50 [44] was > 100 µM (inactive). For the same compound, the GI50 [45] was > 100 µM (inactive), the GI50 [46] was > 100 µM (inactive) and the GI50 [47] was > 100 µM (inactive). The GI50 [48] was > 100 µM (inactive), the GI50 [49] was > 100 µM (inactive) and the GI50 [50] was > 100 µM (inactive).
